Article PMC7905067, “Design and Immunological Evaluation of a Hybrid Peptide as a Potent TLR2 Agonist by Structure-Based Virtual Screening” (Frontiers in Cell and Developmental Biology, 2021)
Where two headings read alike, the source gives them in different places.

What was measured:
[1] = test system: immunoregulatory mediators, proinflammatory cytokines, and chemokines; parameters: method as in 4 sources, ref Scott et al., 2002; Tjabringa et al., 2003; Bowdish et al., 2004 ||| ref Mookherjee et al., 2006; Molhoek et al., 2009 ||| ref Li et al., 2006; Tan et al., 2017 ||| ref Wei et al., 2018; details: cited from earlier work
RAW264.7 cells = experiment: In vitro immunomodulatory activity: cytokine secretion by RAW264.7 cells (ELISA); format: cell-based, murine; details: 10 μg/mL, 12 h, 37°C, ELISA; three independent experiments
Experimental: RAW264.7 cells were seeded at a density of 1.0 × 10^6 cell/mL and treated with (10 μg/mL) or without peptides in each well of a 6-well plate for 12 h at 37°C in a humidified incubator with 5% CO2. After treatment, TNF-α, IL-6 and IL-1β secretion in the cell supernatants was assessed using ELISA kits according to the manufacturer’s instructions.

[2] = test system: CTX-immunosuppressed murine model; experiment: Body weight and immune organ indices in CTX-immunosuppressed mice; format: in vivo, BALB/c mice; details: CTX 80 mg/kg i.p. 3 days, peptide 10 mg/kg i.p. days 4-10, n = 12; for bodyweight: CTX group vs control
Experimental: BALB/c mice (female, 6–8 weeks; Charles River, Beijing, China) used in this study were maintained in a specific-pathogen-free facility (55 ± 10% humidity and 22 ± 1°C) during the experiments. These experiments were conducted with approval from the Institutional Animal Care and Use Committee of China Agricultural University (certificate of the Beijing Laboratory Animal employee, ID: 18086).
(§1) After a 7-day adaptation period, the mice were randomly divided into five groups (n = 12 in each group): (1) control group: physiological saline was injected intraperitoneally once daily; (2) cyclophosphamide (CTX) group: CTX (80 mg/kg mouse weight; Sigma-Aldrich, St. Louis, MO, United States) was injected intraperitoneally once daily for the first 3 days. […] From days 4 to 10, peptide (10 mg/kg mouse weight) was injected intraperitoneally into mice once daily. Twenty-four hours after the last drug administration, all the mice were weighed and then euthanized, and their tissues and blood were collected for further study. The body weight index was calculated according to the formula:
Index(%)=finalbodyweight-initalbodyweight/initialbodyweight×100
The thymus and spleen indices were measured by the following formula:
Index(mg/g)=weightofthymusorspleen/bodyweight

[3] = test system: T lymphocyte subpopulations (CD4 +, CD8 +), mouse peripheral blood; experiment: Peripheral blood T lymphocyte subpopulations by flow cytometry; format: in vivo, BALB/c mice; details: CTX 80 mg/kg i.p. 3 days; peptide 10 mg/kg i.p. days 4-10; three biological replicates
Experimental: as §1, with “formula: […]” for “formula:”
Erythrocytes were aseptically obtained from the different groups of mouse peripheral blood and lysed with RBC lysis buffer. The remaining cells were washed with PBS and resuspended in PBS. The cells were combined with peridinin-chlorophyll-protein complex (PerCP)-conjugated anti-mouse CD3 +, allophycocyanin (APC)-conjugated anti-mouse CD4 +, and fluorescein isothiocyanate (FITC)-conjugated anti-mouse CD8 + (BD Pharmingen, United States) for 30 min at 4°C. The T lymphocyte subpopulations were analyzed by flow cytometry.

[4] = test system: MHC class II, mouse PBMCs; experiment: DC maturation: MHC-II expression by flow cytometry; format: in vivo, BALB/c mice; details: CTX 80 mg/kg i.p. 3 days; peptide 10 mg/kg i.p. days 4-10; three biological replicates
Experimental: as §1, with “formula: […]” for “formula:”
Mouse peripheral blood mononuclear cells (PBMCs) were obtained from the different groups of mice through Ficoll density gradient centrifugation. The cells were resuspended in PBS with 5% FBS and incubated with 10% (v/v) normal goat serum for 15 min at 4°C. The cells were combined with FITC-conjugated antibodies specific for MHC class II (MHC-II; BD Pharmingen, United States). The surface expression of MHC-II was determined by flow cytometry.

[5] = test system: serum TNF-α, IL-6, and IL-1β; experiment: Serum cytokines by ELISA in CTX-treated mice; format: in vivo, BALB/c mice; details: CTX 80 mg/kg i.p. 3 days, peptide 10 mg/kg i.p. days 4-10, three biological replicates
Experimental: as §1, with “formula: […]” for “formula:”
(§2) Serum was collected from blood and then assayed by ELISA kits according to the protocol supplied by the manufacturer (eBioscience, San Diego, United States) to determine the secretion of IgG, IgA, IgM, TNF-α, IL-6, and IL-1β.

serum IgA, IgG, and IgM = experiment: Serum immunoglobulins by ELISA in CTX-treated mice; format: in vivo, BALB/c mice; details: CTX 80 mg/kg i.p. 3 days, peptide 10 mg/kg i.p. days 4-10, three biological replicates
Experimental: as §1, with “formula: […]” for “formula:”
as §2

[6] = test system: TLR2-NF-κB signaling pathway; experiment: Western blot of TLR2-NF-κB signaling pathway; format: in vivo, BALB/c mice; details: proteins from serum, three independent experiments
Experimental: as §1, with “formula: […]” for “formula:”
Whole proteins were extracted from the serum using a whole-protein extraction kit (Nanjing KeyGEN Biotech, Nanjing, China). The protein concentrations were determined with the BCA Assay (KeyGEN Biotech, Nanjing, China) according to the manufacturer’s instructions. Equivalent amounts of protein were separated by SDS-PAGE and blotted onto polyvinylidene fluoride membranes (Bio-Rad). […]

TLR2, RAW264.7 cells = experiment: TLR2 blocking experiment (anti-mouse TLR2 C9A12, then LTPa); format: cell-based; details: LTPa 10 μg/mL, 24 h; with or without TLR2 mAb (C9A12) 1 h before; ELISA
Experimental: For TLR2 blocking experiments, RAW264.7 cells were cultured in 24-well plates overnight at 37°C. The mouse IgG2a isotype control antibody or anti-mouse TLR2 (C9A12; InvivoGen, San Diego, CA, United States) was added to the cell cultures 1 h before being treated with LTPa for 24 h at 37°C. Then, the levels of TNF-α, IL-6, and IL-1β in the culture supernatant were analyzed.

[7] = cited from earlier work
Text: TP5 plays a vitally important role in the process of immune enhancement.

TLR2 = details: cited from earlier work
Text: Therefore, LL-37 could prevent or attenuate immunosuppression.

thymic atrophy = test system: thymic atrophy; parameters: method as in Goldstein et al., 1979; Singh et al., 1998; details: ref Goldstein et al., 1979; Singh et al., 1998; cited from earlier work
[8] = ref Anders et al., 2018; cited from earlier work

For “IGKEFKRIVQRIKDFLRNLVPRTE [LL-37 (13–36), characteristic fragment of LL-37]”, the immunoregulatory activity ([1]; ref Mookherjee et al., 2006, Molhoek et al., 2009) is given as “robust immunoregulatory activity”.

With “RKDVTIGKEFKRIVQRIKDFLRNLVPRTE [TPLa, hybrid peptide combining TP5 and LL-37a]” the IL-1β secretion (RAW264.7 cells) was “no significant increases”, the IL-6 secretion (RAW264.7 cells) was “no significant increases” and the TNF-α secretion (RAW264.7 cells) was “no significant increases”.

In the case of O=P1(N(CCCl)CCCl)NCCCO1 (centres unmarked) [CTX, cyclophosphamide, reference compound], the spleen index [2] is reported as “significantly decreased”, the thymus index [2] is reported as “significantly decreased” and the bodyweight [2] is reported as “significant decrease in the bodyweight”. The “proportions of CD4 + and CD8 + T lymphocytes” value [3] was “remarkably reduced the proportions of CD4 + and CD8 + T lymphocytes”, the “expression of MHC-II” value [4] was “significantly decreased” and the “serum IL-1β level” value [5] was “significantly decreased”. For the same molecule, the “serum IL-6 level” value [5] was “significantly decreased”, the “serum TNF-α level” value [5] was “significantly decreased” and the “serum IgA level” value (serum IgA, IgG, and IgM) was “significantly reduced”. For the same molecule, the “serum IgG level” value (serum IgA, IgG, and IgM) was “significantly reduced”, the “serum IgM level” value (serum IgA, IgG, and IgM) was “significantly reduced” and the “expression levels of TLR2, MyD88, and TRAF6” value [6] was “significantly decreased the expression levels of TLR2, MyD88, and TRAF6”. For the same molecule, the “phosphorylation of IKK-β, IκB-α, and NF-κB” value [6] was “significantly decreased”.

For “FKRIVQRI KDFLR [LL-37 (17–29), characteristic fragment of LL-37]”, the immunoregulatory activity ([1]; ref Li et al., 2006, Tan et al., 2017) is given as “robust immunoregulatory activity”.

With “FKRIVQRIKDFLRRKDVT [LTPb, hybrid peptide combining LL-37b and TP5]” the IL-1β secretion (RAW264.7 cells) was “remarkable increases”, the IL-6 secretion (RAW264.7 cells) was “remarkable increases” and the TNF-α secretion (RAW264.7 cells) was “remarkable increases”.

For “IGKEFKRIVQRIKDFLRNLRKDVT [LTPc, hybrid peptide combining LL-37c and TP5]”, the IL-1β secretion (RAW264.7 cells) was “remarkable increases”, the IL-6 secretion (RAW264.7 cells) was “remarkable increases” and the TNF-α secretion (RAW264.7 cells) was “remarkable increases”.

With “TLR2 mAb: anti-mouse TLR2 (C9A12; InvivoGen) [reference compound]” the “TNF-α, IL-6, and IL-1β production” value (TLR2, RAW264.7 cells) was “significantly inhibited the TNF-α, IL-6, and IL-1β production induced by LTPa”.

With “RKDVT FKRIVQRIKDFLR [TPLb, hybrid peptide combining TP5 and LL-37b]” the IL-1β secretion (RAW264.7 cells) was “no significant increases”, the IL-6 secretion (RAW264.7 cells) was “no significant increases” and the TNF-α secretion (RAW264.7 cells) was “no significant increases”.

In the case of “RKDVT [TP5, Thymopentin, Arg32–Tyr36 fragment derived from thymopoietin; parental peptide]”, the bodyweight [2] is given as “improved bodyweight rapidly”, the half-life [7] is given as “short half-life” and the TLR2 binding (TLR2; ref Li et al., 2013) is given as “exert its immunoregulatory activity by binding TLR2”. The “restoration of thymic atrophy” value (thymic atrophy) was “able to restore the thymic atrophy induced by immunosuppressants”.

For “LLGDFFRKSKEKIGKEFKRIVQRIKDFLRNLVPRTES [LL-37]”, the bodyweight [2] is listed as “improved bodyweight rapidly”, the half-life ([7]; ref not separately given (sentence cites Anders et al., 2018)) is listed as “long half-life” and the “innate immune response by binding to TLR2” value (TLR2; ref Mansour et al., 2014, Zhang et al., 2016, Agier et al., 2018) is listed as “robust innate immune response by binding to TLR2”. For the same molecule, the “production of immunoregulatory mediators, proinflammatory cytokines, and chemokines” value ([1]; ref Scott et al., 2002, Tjabringa et al., 2003, Bowdish et al., 2004) was “stimulates the production of various immunoregulatory mediators, proinflammatory cytokines, and chemokines” and the cytotoxicity [8] was “hampered by its cytotoxicity”.

For “RKDVTIGKEFKRIVQRIKDFLRNL [TPLc, hybrid peptide combining TP5 and LL-37c]”, the IL-1β secretion (RAW264.7 cells) was “no significant increases”, the IL-6 secretion (RAW264.7 cells) was “no significant increases” and the TNF-α secretion (RAW264.7 cells) was “no significant increases”.

In the case of “IGKEFKRIV QRIKDFLRNL [LL-37 (13–31), characteristic fragment of LL-37]”, the immunoregulatory activity ([1]; ref Wei et al., 2018) is given as “robust immunoregulatory activity”.
